Tests used:
HSV-1 [1] = assay: qPCR of viral genome replication in HSV-1 infected hTCEpi cells; assay type: cell-based, HSV-1 (KOS strain); details: for viral genome replication (qPCR): MOI 0.1, inhibitor 10 μM
Procedure: The following strains of HSV-1 were used: KOS, ICPO-null, HFEM, and tsB7. Subconfluent monolayers of cells were grown in six-well plates. Drug treatments were administered 45 minutes prior to infection and continued for the entire duration of each experiment. Unless indicated otherwise, KU-55933 (Batch No. 5, 99.7% purity; Tocris Bioscience, Bristol, UK) was used at 10 μM final concentration, phosphonoacetic acid (PAA) at 400 μg/mL (Sigma-Aldrich, St. Louis, Mo.), and acyclovir at 50 μg/mL (Sigma-Aldrich). KU-55933 was dissolved in dimethyl sulfoxide (DMSO), and the final concentration of DMSO in both KU-55933 and mock treatment in the in vitro and the ex vivo experiments was 0.1%.
Infections with KOS strain of HSV-1 were carried out in six-well plates in a 200 μL inoculum volume at 37° C. for 1 hour with intermittent rocking. The cells were then rinsed and overlaid with fresh medium.
Viral genome replication and transcription were measured by quantitative PCR (qPCR). Total DNA and RNA from infected cells were isolated using the DNeasy Blood & Tissue Kit and the RNeasy Mini Kit, respectively (QIAGEN, Hilden, Germany). RNA was converted to cDNA using qScript (Quanta BioSciences, Gaithersburg, Md.). Real-time qPCR was performed with SYBR Green (Bio-Rad, Hercules, Calif.). Target primers for UL30 (DNA polymerase catalytic subunit) and reference primers for glyceraldehyde 3-phosphate dehydrogenase (GAPDH) were used to measure genome replication. Transcription of the three gene families was measured with primers for RL2 (ICPO), UL30 (DNA polymerase catalytic subunit), and UL44 (gC), with reference primers for the 18S ribosomal RNA (rRNA).
Cells were grown in 6-well plates and used in experiments at −80% confluence. Drug treatments were administered 45 min prior to infection and continued for the entire duration of each experiment. Unless indicated otherwise, Chk2 inhibitor II (>98% purity by HPLC) was used at 10 μM final concentration, and phosphonoacetic acid (PAA) at 400 μg/ml (both from Sigma-Aldrich, St. Louis, Mo.). Chk2 inhibitor II was dissolved in DMSO such that the final concentration of DMSO in both Chk2 inhibitor II and mock treatment was 0.1%. Infections with KOS strain of HSV-1 were carried out in 6-well plates in a 200 μl inoculum volume at 37° C. for 1 hour with intermittent rocking. The cells were then thoroughly rinsed and overlaid with fresh medium.
Total DNA from infected cells and corneas was isolated using the DNeasy Blood & Tissue Kit (QIAGEN, Hilden, Germany). Real time quantitative PCR was performed with SYBR Green (Bio-Rad, Hercules, Calif.). Target primers for UL30 (DNA polymerase catalytic subunit) and reference primers for GAPDH were used to measure viral genome abundance. Primer sequences were based on the KOS genome (accession #JQ673480.1).

HSV-1 [2] = assay: Plaque assay of supernatants from HSV-1 infected hTCEpi cells; assay type: cell-based, HSV-1 (KOS strain)
Procedure: (§1) All cells were cultured at 37° C. and 5% CO2 and supplemented with 100 U/mL penicillin and […]. Human corneal epithelial cells immortalized with hTERT (hTCEpi; Robertson, et al., 2005, Invest Ophthalmol Vis Sci. 46:470-478) were grown in complete keratinocyte growth medium 2 (KGM-2; Lonza, Basel, Switzerland). African green monkey kidney fibroblasts (CV-1; American Type Culture Collection, Manassas, Va.) were grown in Dulbecco's modified Eagle's medium (DMEM; Cellgro, Manassas, Va.) supplemented with 10% FBS. The KOS strain of HSV-1 was used in the in vitro and ex vivo infections, whereas McKrae strain was used for in vivo mouse experiments, and TK mutant dlsptk strain (Coen et al., 1989, Proc Natl Acad Sci USA 86:4736-4740) was used in the drug resistance experiments. All viral stocks were titered on CV-1 monolayers.
(§2) The following strains of HSV-1 were used: KOS, ICPO-null, HFEM, and tsB7. Subconfluent monolayers of cells were grown in six-well plates. Drug treatments were administered 45 minutes prior to infection and continued for the entire duration of each experiment. Unless indicated otherwise, KU-55933 (Batch No. 5, 99.7% purity; Tocris Bioscience, Bristol, UK) was used at 10 μM final concentration, phosphonoacetic acid (PAA) at 400 μg/mL (Sigma-Aldrich, St. Louis, Mo.), and acyclovir at 50 μg/mL (Sigma-Aldrich). […]

cleaved caspase-3 = assay: Cleaved caspase-3 immunofluorescence in HSV-1 infected explanted human corneas; assay type: cell-based; details: 10 μM, 48 hpi, vs mock-treated
Procedure: Human corneas were obtained from the Lions Eye Bank of Delaware Valley. Rabbit corneas were excised from intact fresh eyeballs of young (8-12 weeks) albino rabbits (Pel-Freez Biologicals, Rogers, Ark.). Protocol (Alekseev et al., 2012, J Vis Exp 69:e3631) for ex vivo corneal culture, infection, and treatment was followed closely. Briefly, corneoscleral buttons were excised and rinsed in PBS containing 200 U/mL penicillin and 200 μg/mL streptomycin. The endothelial concavity was filled with culture medium containing 1% low melting temperature agarose. The corneas were cultured epithelial side up in MEM medium supplemented with nonessential amino acids (1×), 2 mM […], 200 U/mL penicillin, and 200 μg/mL streptomycin. The next day, they were infected with 1×10^4 plaque forming units (PFU)/cornea of strain KOS HSV-1 for 1 hour, rinsed, and overlaid with fresh medium. Drug treatments were administered at the same concentrations as for cultured cells. For KU-55933 bioavailability assessment, corneas were treated with bleomycin (200 μg/mL) for 1 hour. The epithelial cell layer was collected by scraping to isolate DNA or protein. […] Treatment toxicity was assessed by briefly staining the cornea with fluorescein (1% wt/vol in PBS) and imaging the epithelial defects with 464-nm wavelength blue light (LDP LLC, Carlstadt, N.J.). […]

HSV-1 [3] = assay: HSV-1 cytopathic effect in infected hTCEpi cells (phase contrast); assay type: cell-based, HSV-1 (KOS strain); details: MOI 0.1, inhibitor 10 μM, 20 hpi
Procedure: as §1, §2

Row | Structure (SMILES) | viral genome replication (qPCR) (HSV-1 [1]; hTCEpi cells) | viral genome levels (qPCR) at high viral load (HSV-1 [1]; hTCEpi cells, MOI 5, 10 μM) | generation of infectious viral particles (plaque assay) (HSV-1 [2]; MOI 0.1, 10 μM, vs controls) | cleaved caspase-3 staining (apoptosis) in corneal epithelium (cleaved caspase-3) | cytopathic effect (CPE) of HSV-1 (HSV-1 [3]) | effect of addition on the dose-response curve of the partner drug (HSV-1 [1]; hTCEpi, MOI 0.1, KU-55933 0-7 μM with acyclovir 0-1.5 μg/mL, 16 hpi) | inhibition of infectious particle production (plaque assay) (HSV-1 [2]; MOI 0.1, KU-55933 10 μM, 20 hpi)
1 | NC(=O)c1ccc2[nH]c(-c3ccc(Oc4ccc(Cl)cc4)cc3)nc2c1 [Chk2 inhibitor II, 2-(4-(4-chlorophenoxy)phenyl)-1H-benzimidazole-5-carboxamide] | profoundly reduced | reduced yet still substantial decrease | reduction | abrogated | almost completely eliminated |  | 
2 | O=c1cc(-c2cccc3c2Sc2ccccc2S3)oc(N2CCOCC2)c1 [KU-55933, 2-(morpholin-4-yl)-6-(thianthren-1-yl)-pyran-4-one] | sharp reduction |  |  | reduction | prevented | shifted the acyclovir dose-response curve to the left | greater than 10,000 fold

From patent publication US20210023089A1, “Compositions Useful for Treating Herpes Simplex Keratitis, and Methods Using Same” (priority 2013, published 2021)
